In patent US12083109B2, “Neurokinin antagonists and uses thereof” (California Institute of Technology, priority 2017, dated 2024):

Experiments:
[1] = target: T1, Nk3R (Mus musculus, UniProt P47937); experiment: Tone fear conditioning test (freezing to conditioned tone), osanetant; assay type: in vivo; design: from tissue; host or cells: Living mice (wild-type C57Bl6/N males, Charles River); details: for SIS-induced persistent (post) freezing to fear-conditioned tone: SIS mice; for acute (and thereby persistent) freezing to conditioned threatening stimulus (tone): osanetant injection into CeA; for SIS-induced persistent freezing to conditioned tone: osanetant microinfusion into dBNSTa, 375 ng per site, 20 min before test
T1 sequence (P47937 1-452): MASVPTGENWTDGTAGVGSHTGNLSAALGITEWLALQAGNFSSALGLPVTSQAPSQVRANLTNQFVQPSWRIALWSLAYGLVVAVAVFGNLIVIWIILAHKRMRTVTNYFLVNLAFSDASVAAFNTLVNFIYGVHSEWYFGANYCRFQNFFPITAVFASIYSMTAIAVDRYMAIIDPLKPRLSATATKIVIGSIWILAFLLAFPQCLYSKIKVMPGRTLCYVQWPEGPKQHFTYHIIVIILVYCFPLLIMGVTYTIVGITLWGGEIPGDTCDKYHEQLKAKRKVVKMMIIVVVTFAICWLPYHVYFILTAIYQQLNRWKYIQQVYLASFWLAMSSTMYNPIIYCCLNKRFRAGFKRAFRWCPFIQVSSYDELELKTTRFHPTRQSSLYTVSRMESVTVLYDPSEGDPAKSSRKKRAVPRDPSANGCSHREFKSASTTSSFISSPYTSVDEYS
Procedure: The protocol for tone trace fear conditioning was performed as previously described (Cushman et al., 2014; incorporated by reference in its entirety) using fear conditioning boxes previously described in detail (Haubensak et al., 2010; Kunwar et al., 2015; incorporated by reference in their entirety). Briefly, mice were transported in squads of four on a white cart to a novel behavioral testing room containing 4 sound-attenuating fear-conditioning chambers (Med Associates). This “training context” was comprised of flat grid flooring (wired to a shock generator and scrambler for footshock delivery, Med Associates), houselights, and the presence of an internal fan for background noise. Chambers were sprayed with 70% Simple Green solution on the underlying chamber pan to generate a unique contextual scent and chambers were cleaned with 70% EtOH between squads. Trace fear conditioning consisted of a 3 minute baseline period followed by 3 tone-shock trials consisting of a 20 second tone conditional stimulus (CS; 75 dB, 2800 Hz), a 20 second trace interval and a 2 second footshock unconditional stimulus (US; 0.7 mA). The inter-trial interval (ITI) between trials was 60 seconds. Mice remained in the chambers an additional 60 seconds before being transported back to the vivarium. The following day, mice were transported in fresh cardboard boxes to a novel behavioral testing room consisting of 4 distinct fear-conditioning boxes to test for tone fear. The “test context” consisted of the houselights and fan turned off, uneven grid flooring, a 1% acetic acid scent and a black plastic insert used to generate a triangular roof. Testing was performed identical to training with the exception that shocks were omitted from test trials to allow for behavior assessment to the tone. A single shock was administered in the last minute of testing to assess activity burst responding to the shock. This allowed assessment of reactivity to the shock under our various manipulations performed during testing without disrupting fear acquisition by performing manipulations during training. All experimental manipulations and data shown herein were performed during the test phase of fear conditioning (training data not shown). Training and testing context were counterbalanced across mice. Freezing behavior during the baseline period as well as during each tone presentation (“during”) and trace interval (“post”) were assessed as previously described (Zelikowsky et al., 2014; incorporated by reference in its entirety) using automated near-infrared video tracking equipment and computer software (VideoFreeze, Med Associates). Shock reactivity (motion, arbitrary units) was measured during the 2 second shock US as well as the 3 seconds immediately following.
Mice were administered the Nk3R antagonist osanetant (Axon Medchem, Axon 1533) either systemically or intra-brain region. Osanctant was dissolved in saline with 0.1% Tween 20 (vehicle). For systemic administration mice received an intraperitoneal (i.p.) injection (5 mg/kg) 20 minutes prior to behavioral testing. For microinfusions, guide cannulas were removed from mice and replaced with injector cannulas (Plastics One), which protruded 0.5 mm from the tip of the guide cannula. Injectors were attached to 5 μl Hamilton syringes with PE tubing (Plastics One) and mounted on a microinfusion pump (Harvard Apparatus) for controlled infusion of osanetant (0.3 μl vehicle with 375 ng dose per site injected over 6 minutes). For experiments using systemic administration of clozapine-N-oxide (CNO), CNO (Enzo Life Sciences-Biomol, BML-NS105-0005) was dissolved in saline (9 g/L NaCl) and injected (i.p.) at 5 mg/kg for hM4DREADD silencing or 2 mg/kg for hM3DREADD activation 20 minutes prior to behavioral testing. CNO was also administered chronically in drinking water (0.5 mg CNO/100 ml water).

[2] = target: T1, Nk3R; experiment: as above; assay type: in vivo; design: from tissue; host or cells: Living mice (wild-type C57Bl6/N males, Charles River); details: osanetant daily during two-week isolation, tested off-drug

**Q.** How did the “SIS-induced persistent (post) freezing to fear-conditioned tone” value ([1]; osanetant 5 mg/kg i.p. 20 min before test) turn out when `CC(=O)N(C)C1(c2ccccc2)CCN(CCC[C@]2(c3ccc(Cl)c(Cl)c3)CCCN(C(=O)c3ccccc3)C2)CC1` [osanetant, N-(1-{3-[(3R)-1-benzoyl-3-(3,4-dichlorophenyl)piperidin-3-yl]propyl}-4-phenylpiperidin-4-yl)-N-methylacetamide] was run?
**A.** blocked

**Q.** What about the “SIS-induced persistent (post) freezing to fear-conditioned tone” value ([1]; osanetant 5 mg/kg i.p. 20 min before test, listed as Osanetant) of the same compound?
**A.** attenuated

**Q.** What about the “freezing during presentation of conditioned tone (acute)” value ([1]; osanetant 5 mg/kg i.p. 20 min before test, between groups) of the same compound?
**A.** no significant differences

**Q.** And the “acute (and thereby persistent) freezing to conditioned threatening stimulus (tone)” value [1]?
**A.** reduced

**Q.** And the “acute (and thereby persistent) freezing to conditioned threatening stimulus (tone)” value ([1]; listed as Osanetant)?
**A.** selectively blocked

**Q.** And the “persistent responses to conditioned tone” value ([1]; osanetant microinfusion into DMH)?
**A.** had no effect

**Q.** What about the “SIS-induced persistent freezing to conditioned tone” value [1] of the same compound?
**A.** selectively inhibited

**Q.** And the “SIS-induced persistent freezing to conditioned tone” value ([1]; listed as Osanetant)?
**A.** selectively blocked

**Q.** What about the “persistent freezing to fear conditioned tone” value [2] of the same compound?
**A.** prevented
